In PMC3491841 (EMBO Molecular Medicine, 2012):

How the values were obtained:
Type in all cases: binding
[1] = target: T1, LdTOP1LS (reconstituted heterodimeric topoisomerase IB) (Leishmania donovani, UniProt A0A3Q8IHS4+Q8WQM6); experiment: tryptophan fluorescence quenching
T1 sequence (A0A3Q8IHS4 1-635): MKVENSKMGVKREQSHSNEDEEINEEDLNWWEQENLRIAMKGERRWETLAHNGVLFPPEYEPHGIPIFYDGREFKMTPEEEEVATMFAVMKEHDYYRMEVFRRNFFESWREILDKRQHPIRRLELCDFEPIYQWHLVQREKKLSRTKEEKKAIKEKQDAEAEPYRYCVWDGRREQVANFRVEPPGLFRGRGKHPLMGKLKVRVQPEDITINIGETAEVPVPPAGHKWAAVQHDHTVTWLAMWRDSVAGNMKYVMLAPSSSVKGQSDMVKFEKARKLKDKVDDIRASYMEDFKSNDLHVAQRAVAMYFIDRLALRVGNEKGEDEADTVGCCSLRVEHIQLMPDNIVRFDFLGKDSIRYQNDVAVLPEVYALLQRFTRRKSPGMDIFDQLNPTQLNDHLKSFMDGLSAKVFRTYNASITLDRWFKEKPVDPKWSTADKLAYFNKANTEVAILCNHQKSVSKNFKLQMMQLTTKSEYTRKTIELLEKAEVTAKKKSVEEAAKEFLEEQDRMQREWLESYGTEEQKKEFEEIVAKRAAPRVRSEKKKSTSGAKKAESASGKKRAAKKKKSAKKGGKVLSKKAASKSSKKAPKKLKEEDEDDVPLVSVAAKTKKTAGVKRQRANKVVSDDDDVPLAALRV
T1 sequence (Q8WQM6 1-262): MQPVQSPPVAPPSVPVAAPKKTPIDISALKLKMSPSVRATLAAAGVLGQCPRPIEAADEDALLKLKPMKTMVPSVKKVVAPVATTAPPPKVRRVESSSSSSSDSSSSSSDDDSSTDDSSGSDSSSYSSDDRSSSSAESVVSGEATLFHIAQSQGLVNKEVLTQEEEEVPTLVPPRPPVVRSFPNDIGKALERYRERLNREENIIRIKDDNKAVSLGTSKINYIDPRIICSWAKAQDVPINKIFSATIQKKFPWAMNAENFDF

[2] = target: T2, LdTOP1L (large subunit of L. donovani topoisomerase IB) (Leishmania donovani, UniProt A0A3Q8IHS4); experiment: intrinsic tryptophan fluorescence quenching
T2 sequence (A0A3Q8IHS4 1-635): T1 sequence (A0A3Q8IHS4 1-635)

[3] = target: T3, LdTOP1S (small subunit of L. donovani topoisomerase IB) (Leishmania donovani, UniProt Q8WQM6); experiment: intrinsic tryptophan fluorescence quenching
T3 sequence (Q8WQM6 1-262): T1 sequence (Q8WQM6 1-262)

With `COC[C@@H](Cc1ccc(OC)c(OC)c1)[C@@H](COC)Cc1cc(OC)c2c(c1)OCO2` [niranthin] the Kd [1] was 299 ± 160 nM, the Kd [2] was 372 ± 260 nM and the Kd [3] was 169 ± 120 nM.
